Experimental data published in patent publication US20260070945A1, “MACROCYCLIC IMMUNOMODULATORS” (Bristol-Myers Squibb Company, priority 2022, published 2026).
Where a SMILES comes first, the peptide text is derived from it. Bridges are numbered along the chain shown (N, C = ends). [ ]: non-standard residue; d: D form. The star is where a group is joined. ξ: configuration not given here. Phe(4-COOH) = N[C@@H](Cc1ccc(C(=O)O)cc1)C(=O)O; Bip = N[C@@H](Cc1ccc(-c2ccccc2)cc1)C(=O)O; Phe(3-Me) = Cc1cccc(C[C@H](N)C(=O)O)c1; Val(3-OH) = CC(C)(O)[C@H](N)C(=O)O; 4Pal = N[C@@H](Cc1ccncc1)C(=O)O; Cha = N[C@@H](CC1CCCCC1)C(=O)O; Cit = NC(=O)NCCC[C@H](N)C(=O)O; Ile(3ξ) = CCC(C)[C@H](N)C(=O)O; Carboxymethyl = O=C(O)C*; NMeA = CN[C@@H](C)C(=O)O; Orn = NCCC[C@H](N)C(=O)O; Aun = NCCCCCCCCCCC(=O)O; Dab = NCC[C@H](N)C(=O)O; AEEA = NCCOCCOCC(=O)O

Biological target: T1, PD-1/PD-L1 interaction (PE-labeled human PD-L1-Ig binding to Jurkat cell line over-expressing human PD-1) (Homo sapiens, UniProt Q15116)
T1 construct: expressed in transfected cells; host or cells: Jurkat
T1 sequence (Q15116 25-288): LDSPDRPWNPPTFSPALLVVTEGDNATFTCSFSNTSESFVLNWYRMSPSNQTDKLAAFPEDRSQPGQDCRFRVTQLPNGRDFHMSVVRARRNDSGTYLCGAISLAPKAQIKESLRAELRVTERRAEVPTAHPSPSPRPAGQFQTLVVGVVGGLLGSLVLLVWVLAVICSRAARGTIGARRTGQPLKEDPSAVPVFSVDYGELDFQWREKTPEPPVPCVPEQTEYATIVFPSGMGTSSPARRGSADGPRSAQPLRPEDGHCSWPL
Test: Jurkat-PD-1 Cell Binding High-Content Screening Assay (CBA)
Conditions: Jurkat-hPD-1 cells, PE-labeled PD-L1-Ig 20 nM final; read-out: Jurkat HPD1 PDL1 IC50
In short: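 High-content imaging read-out of PE-PD-L1-Ig binding (20 nM final, 1 h) to Jurkat-hPD-1 cells, after 2 h compound exposure at 37 °C in DMEM with 10% FCS. Nuclei counterstained with Hoechst 33342 after paraformaldehyde fixation.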

| Structure (SMILES) | IC50 [nM] |
| --- | --- |
| CC(C)C[C@H]1NC(=O)[C@H](C)N(C)C(=O)[C@H](Cc2ccc(OCC(=O)O)cc2)NC(=O)[C@H](Cc2ccc(-c3ccccc3)cc2)NC(=O)[C@H](Cc2ccc(OCC(=O)O)cc2)NC(=O)[C@H](Cc2c[nH]c3ccccc23)NC(=O)[C@H](CC(=O)O)NC(=O)[C@H](Cc2ccc(OCC(=O)O)cc2)NC(=O)[C@H]([C@@H](C)O)NC(=O)CSC[C@@H](C(=O)N[C@@H](CCN)C(=O)NCCOCCOCC(=O)NCCCCCCCCCCC(=O)O)NC(=O)[C@H](CC(N)=O)NC(=O)[C@H](C(C)C)NC(=O)[C@H](CC2CCCCC2)NC(=O)[C@H](CCC(=O)O)NC1=O [Example 1401] ({CH2CO}-TY(Carboxymethyl)DWY(Carboxymethyl)[Bip]Y(Carboxymethyl)[NMeA][dL]E[Cha]VNC[Dab][AEEA][Aun]-OH; thioether N-14) | 63.9 |
| Cc1cccc(C[C@@H]2NC(=O)[C@H](CC(=O)O)NC(=O)[C@H](Cc3ccc(OCC(=O)O)cc3)NC(=O)[C@@H]([C@H](C)O)NC(=O)CSC[C@@H](C(=O)NCCOCCOCC(=O)NCCCCCCCCCCC(=O)O)NC(=O)[C@H]([C@@H](C)O)NC(=O)[C@H](C(C)C)NC(=O)[C@H](CC3CCCCC3)NC(=O)[C@H](CCN)NC(=O)[C@@H](CC(C)C)NC(=O)[C@H](C)N(C)C(=O)[C@H](CCCNC(N)=O)NC(=O)[C@H](Cc3ccc(-c4ccccc4)cc3)NC(=O)[C@H](C(C)C)NC2=O)c1 [Example 1402] ({CH2CO}-[dT]Y(Carboxymethyl)D[Phe(3-Me)]V[Bip][Cit][NMeA][dL][Dab][Cha]VTC[AEEA][Aun]-OH; thioether N-14) | 203 |
| Cc1cccc(C[C@@H]2NC(=O)[C@H](CC(=O)O)NC(=O)[C@H](Cc3ccc(OCC(=O)O)cc3)NC(=O)[C@H]([C@@H](C)O)NC(=O)CSC[C@@H](C(=O)NCCOCCOCC(=O)NCCCCCCCCCCC(=O)O)NC(=O)[C@H](CO)NC(=O)[C@H](C(C)(C)O)NC(=O)[C@H](CC3CCCCC3)NC(=O)[C@H](CCN)NC(=O)[C@@H](CC(C)C)NC(=O)[C@H](C)N(C)C(=O)[C@H](CCCNC(N)=O)NC(=O)[C@H](Cc3ccc(-c4ccccc4)cc3)NC(=O)[C@H](C(C)C)NC2=O)c1 [Example 1403] ({CH2CO}-TY(Carboxymethyl)D[Phe(3-Me)]V[Bip][Cit][NMeA][dL][Dab][Cha][Val(3-OH)]SC[AEEA][Aun]-OH; thioether N-14) | 5 |
| Cc1cccc(C[C@@H]2NC(=O)[C@H](CC(=O)O)NC(=O)[C@H](Cc3ccc(C(=O)O)cc3)NC(=O)[C@H](Cc3ccncc3)NC(=O)CSC[C@@H](C(=O)N[C@@H](CCN)C(=O)NCCOCCOCC(=O)NCCCCCCCCCCC(=O)O)NC(=O)[C@H](CCCN)NC(=O)[C@H](C(C)C)NC(=O)[C@H](CC3CCCCC3)NC(=O)[C@H](CCN)NC(=O)[C@@H](CC(C)C)NC(=O)[C@H](C)N(C)C(=O)[C@H](CCCNC(N)=O)NC(=O)[C@H](Cc3ccc(-c4ccccc4)cc3)NC(=O)[C@H](Cc3ccc(C(=O)O)cc3)NC2=O)c1 [Example 1404] ({CH2CO}-[4Pal][Phe(4-COOH)]D[Phe(3-Me)][Phe(4-COOH)][Bip][Cit][NMeA][dL][Dab][Cha]V[Orn]C[Dab][AEEA][Aun]-OH; thioether N-14) | 26.1 |
| Cc1cccc(C[C@@H]2NC(=O)[C@H](CC(=O)O)NC(=O)[C@H](Cc3ccc(C(=O)O)cc3)NC(=O)[C@H](Cc3ccncc3)NC(=O)CSC[C@@H](C(=O)N[C@@H](CCN)C(=O)NCCOCCOCC(=O)NCCCCCCCCCCC(=O)O)NC(=O)[C@H](CCCN)NC(=O)[C@H](C(C)C)NC(=O)[C@H](CC3CCCCC3)NC(=O)[C@H](CCN)NC(=O)[C@@H](CC(C)C)NC(=O)[C@H](C)N(C)C(=O)[C@H](Cc3ccc(OCC(=O)O)cc3)NC(=O)[C@H](Cc3ccc(-c4ccccc4)cc3)NC(=O)[C@H](Cc3ccc(OCC(=O)O)cc3)NC2=O)c1 [Example 1405] ({CH2CO}-[4Pal][Phe(4-COOH)]D[Phe(3-Me)]Y(Carboxymethyl)[Bip]Y(Carboxymethyl)[NMeA][dL][Dab][Cha]V[Orn]C[Dab][AEEA][Aun]-OH; thioether N-14) | 23.6 |
| Cc1cccc(C[C@@H]2NC(=O)[C@H](CC(=O)O)NC(=O)[C@H](Cc3ccc(C(=O)O)cc3)NC(=O)[C@H](Cc3ccncc3)NC(=O)CSC[C@@H](C(=O)N[C@@H](CCN)C(=O)NCCOCCOCC(=O)NCCCCCCCCCCC(=O)O)NC(=O)[C@H](CCCN)NC(=O)[C@H](C(C)C)NC(=O)[C@H](CC3CCCCC3)NC(=O)[C@H](CCN)NC(=O)[C@@H](CC(C)C)NC(=O)[C@H](C)N(C)C(=O)[C@H](CCCNC(N)=O)NC(=O)[C@H](Cc3ccc(-c4ccccc4)cc3)NC(=O)[C@H](Cc3ccc(OCC(=O)O)cc3)NC2=O)c1 [Example 1406] ({CH2CO}-[4Pal][Phe(4-COOH)]D[Phe(3-Me)]Y(Carboxymethyl)[Bip][Cit][NMeA][dL][Dab][Cha]V[Orn]C[Dab][AEEA][Aun]-OH; thioether N-14) | 51.1 |
| CCC(C)[C@@H]1NC(=O)[C@H](Cc2ccc(-c3ccccc3)cc2)NC(=O)[C@H](Cc2ccc(OCC(=O)O)cc2)NC(=O)[C@H](Cc2cccc(C)c2)NC(=O)[C@H](CC(=O)O)NC(=O)[C@H](Cc2ccc(C(=O)O)cc2)NC(=O)[C@H](Cc2ccncc2)NC(=O)CSC[C@@H](C(=O)N[C@@H](CCN)C(=O)NCCOCCOCC(=O)NCCCCCCCCCCC(=O)O)NC(=O)[C@H](CCCN)NC(=O)[C@H](C(C)C)NC(=O)[C@H](CC2CCCCC2)NC(=O)[C@H](CCN)NC(=O)[C@@H](CC(C)C)NC(=O)[C@H](C)N(C)C1=O (stereo partly drawn) [Example 1407] ({CH2CO}-[4Pal][Phe(4-COOH)]D[Phe(3-Me)]Y(Carboxymethyl)[Bip][Ile(3ξ)][NMeA][dL][Dab][Cha]V[Orn]C[Dab][AEEA][Aun]-OH; thioether N-14) | 89.9 |
| Cc1cccc(C[C@@H]2NC(=O)[C@H](CC(=O)O)NC(=O)[C@H](Cc3ccc(OCC(=O)O)cc3)NC(=O)[C@H]([C@@H](C)O)NC(=O)CSC[C@@H](C(=O)N[C@@H](CCN)C(=O)NCCOCCOCC(=O)NCCCCCCCCCCC(=O)O)NC(=O)[C@H](CCC(=O)O)NC(=O)[C@H](C(C)(C)O)NC(=O)[C@H](CC3CCCCC3)NC(=O)[C@H](CCN)NC(=O)[C@@H](CC(C)C)NC(=O)[C@H](C)N(C)C(=O)[C@H](Cc3ccc(OCC(=O)O)cc3)NC(=O)[C@H](Cc3ccc(-c4ccccc4)cc3)NC(=O)[C@H](Cc3ccc(OCC(=O)O)cc3)NC2=O)c1 [Example 1408] ({CH2CO}-TY(Carboxymethyl)D[Phe(3-Me)]Y(Carboxymethyl)[Bip]Y(Carboxymethyl)[NMeA][dL][Dab][Cha][Val(3-OH)]EC[Dab][AEEA][Aun]-OH; thioether N-14) | 28.9 |
| CCC(C)[C@@H]1NC(=O)[C@H](Cc2ccc(-c3ccccc3)cc2)NC(=O)[C@H](CC(C)C)NC(=O)[C@H](Cc2c[nH]c3ccccc23)NC(=O)[C@H](CC(=O)O)NC(=O)[C@H](Cc2ccc(C(=O)O)cc2)NC(=O)[C@H](Cc2ccc(OCC(=O)O)cc2)NC(=O)CSC[C@@H](C(=O)N[C@@H](CC(N)=O)C(=O)NCCOCCOCC(=O)NCCCCCCCCCCC(=O)O)NC(=O)[C@H](CO)NC(=O)[C@H](C(C)(C)O)NC(=O)[C@H](CC2CCCCC2)NC(=O)[C@H](CCN)NC(=O)[C@@H](CC(C)C)NC(=O)[C@H](C)N(C)C1=O (stereo partly drawn) [Example 1409] ({CH2CO}-Y(Carboxymethyl)[Phe(4-COOH)]DWL[Bip][Ile(3ξ)][NMeA][dL][Dab][Cha][Val(3-OH)]SCN[AEEA][Aun]-OH; thioether N-14) | 23.7 |
| CCC(C)[C@@H]1NC(=O)[C@H](Cc2ccc(-c3ccccc3)cc2)NC(=O)[C@H](CC(C)C)NC(=O)[C@H](Cc2c[nH]c3ccccc23)NC(=O)[C@H](CC(=O)O)NC(=O)[C@H](Cc2ccc(C(=O)O)cc2)NC(=O)[C@H](Cc2ccc(OCC(=O)O)cc2)NC(=O)CSC[C@@H](C(=O)N[C@@H](CCN)C(=O)NCCOCCOCC(=O)NCCCCCCCCCCC(=O)O)NC(=O)[C@H](CO)NC(=O)[C@H](C(C)(C)O)NC(=O)[C@H](CC2CCCCC2)NC(=O)[C@H](CCN)NC(=O)[C@@H](CC(C)C)NC(=O)[C@H](C)N(C)C1=O (stereo partly drawn) [Example 1410] ({CH2CO}-Y(Carboxymethyl)[Phe(4-COOH)]DWL[Bip][Ile(3ξ)][NMeA][dL][Dab][Cha][Val(3-OH)]SC[Dab][AEEA][Aun]-OH; thioether N-14) | 16.2 |
| CC(C)C[C@@H]1NC(=O)[C@H](Cc2c[nH]c3ccccc23)NC(=O)[C@H](CC(=O)O)NC(=O)[C@H](Cc2ccc(C(=O)O)cc2)NC(=O)[C@H](Cc2ccc(OCC(=O)O)cc2)NC(=O)CSC[C@@H](C(=O)N[C@@H](CCN)C(=O)NCCOCCOCC(=O)NCCCCCCCCCCC(=O)O)NC(=O)[C@H](CO)NC(=O)[C@H](C(C)(C)O)NC(=O)[C@H](CC2CCCCC2)NC(=O)[C@H](CCN)NC(=O)[C@@H](CC(C)C)NC(=O)[C@H](C)N(C)C(=O)[C@H](C(C)C)NC(=O)[C@H](Cc2ccc(-c3ccccc3)cc2)NC1=O [Example 1411] ({CH2CO}-Y(Carboxymethyl)[Phe(4-COOH)]DWL[Bip]V[NMeA][dL][Dab][Cha][Val(3-OH)]SC[Dab][AEEA][Aun]-OH; thioether N-14) | 9.7 |
| Cc1cccc(C[C@@H]2NC(=O)[C@H](CC(=O)O)NC(=O)[C@H](Cc3ccncc3)NC(=O)[C@H](Cc3ccc(OCC(=O)O)cc3)NC(=O)CSC[C@@H](C(=O)N[C@@H](CCN)C(=O)NCCOCCOCC(=O)NCCCCCCCCCCC(=O)O)NC(=O)[C@H](CO)NC(=O)[C@H](C(C)(C)O)NC(=O)[C@H](CC3CCCCC3)NC(=O)[C@H](CCN)NC(=O)[C@@H](CC(C)C)NC(=O)[C@H](C)N(C)C(=O)[C@H](Cc3ccc(OCC(=O)O)cc3)NC(=O)[C@H](Cc3ccc(-c4ccccc4)cc3)NC(=O)[C@H](Cc3ccc(OCC(=O)O)cc3)NC2=O)c1 [Example 1412] ({CH2CO}-Y(Carboxymethyl)[4Pal]D[Phe(3-Me)]Y(Carboxymethyl)[Bip]Y(Carboxymethyl)[NMeA][dL][Dab][Cha][Val(3-OH)]SC[Dab][AEEA][Aun]-OH; thioether N-14) | 207 |
